# Source: patent US20170190671A1, “BIS(ARYL)CATECHOL DERIVATIVES AS HERBICIDES” (E I DU PONT DE NEMOURS AND COMPANY, priority 2014, published 2017)
# What was measured:
# soybean (Glycine max) = assay: Test C postemergence; type: in vivo; conditions: Glycine max, post-emergence, Postemergence, scale 0 to 100, read-out: Plant response rating, Soybean
# [1] = system: galium (catchweed bedstraw, Galium aparine); assay: Test C postemergence; type: in vivo; conditions: Galium, post-emergence, 336 h, Postemergence, scale 0 to 100, read-out: Plant response rating, Galium
# corn (Zea mays) = assay: Test C postemergence; type: in vivo; conditions: Zea mays, post-emergence, 336 h, Postemergence, scale 0 to 100
# [2] = system: ragweed (common ragweed, Ambrosia elatior); assay: Test C postemergence; type: in vivo; conditions: Ambrosia artemisiifolia, post-emergence, 336 h, Postemergence, scale 0 to 100, read-out: Plant response rating, Ragweed
# [3] = system: waterhemp (common waterhemp, Amaranthus rudis); assay: Test C postemergence; type: in vivo; conditions: Amaranthus tuberculatus, post-emergence, Postemergence, scale 0 to 100, read-out: Plant response rating, Waterhemp
# [4] = system: lambsquarters (Chenopodium album); assay: Test C postemergence; type: in vivo; conditions: Chenopodium album, post-emergence, 336 h, Postemergence, scale 0 to 100, read-out: Plant response rating, Lambsquarters
compound,measurement,setting,value
"FC(F)c1cnc(Oc2c(Br)cccc2Oc2ncc(Cl)cn2)s1 [Compound 10, 2-[3-bromo-2-[[5-(difluoromethyl)-2-thiazolyl]oxy]phenoxy]-5-chloropyrimidine]",melting point,,113 to 116 °C
Fc1ccc(F)c(Oc2ncc(Br)cn2)c1Oc1ncc(Br)cn1 [Compound 31],melting point,,166 to 170 °C
N#Cc1cccc(Oc2ncc(Cl)cn2)c1Oc1ccc(Cl)cc1 [Compound 36],plant injury at 31 g/ha,soybean (Glycine max); 31 g ai/ha,25%
same,plant injury at 62 g/ha,soybean (Glycine max); 62 g ai/ha,50%
same,plant injury at 125 g/ha,soybean (Glycine max); 125 g ai/ha,45%
same,pest or weed control at 16 g/ha,[1]; 16 g ai/ha,80%
same,pest or weed control at 31 g/ha,[1]; 31 g ai/ha,80%
same,pest or weed control at 62 g/ha,[1]; 62 g ai/ha,95%
same,pest or weed control at 125 g/ha,[1]; 125 g ai/ha,95%
same,"Corn plant response rating (crop injury, 0 = no effect, 100 = complete kill) at 16 g/ha",corn (Zea mays); 16 g ai/ha,10%
same,"Corn plant response rating (crop injury, 0 = no effect, 100 = complete kill) at 31 g/ha",corn (Zea mays); 31 g ai/ha,15%
same,"Corn plant response rating (crop injury, 0 = no effect, 100 = complete kill) at 62 g/ha",corn (Zea mays); 62 g ai/ha,20%
same,"Corn plant response rating (crop injury, 0 = no effect, 100 = complete kill) at 125 g/ha",corn (Zea mays); 125 g ai/ha,20%
same,pest or weed control at 31 g/ha,[2]; 31 g ai/ha,45%
same,pest or weed control at 62 g/ha,[2]; 62 g ai/ha,40%
same,pest or weed control at 125 g/ha,[2]; 125 g ai/ha,75%
same,pest or weed control at 31 g/ha,[3]; 31 g ai/ha,90%
same,pest or weed control at 62 g/ha,[3]; 62 g ai/ha,100%
same,pest or weed control at 125 g/ha,[3]; 125 g ai/ha,98%
same,pest or weed control at 16 g/ha,[4]; 16 g ai/ha,90%
same,pest or weed control at 31 g/ha,[4]; 31 g ai/ha,95%
same,pest or weed control at 62 g/ha,[4]; 62 g ai/ha,98%
same,pest or weed control at 125 g/ha,[4]; 125 g ai/ha,100%
same,melting point,,172 to 175 °C
N#Cc1cccc(Oc2ncc(Cl)cn2)c1Oc1cccc(Cl)c1 [Compound 37],melting point,,122 to 126 °C
N#Cc1cccc(Oc2ncc(Cl)cn2)c1Oc1ccccc1Cl [Compound 40],melting point,,120 to 123 °C
